Experimental data taken from PMC2841397 (Xenobiotica; the fate of foreign compounds in biological …, 2010).
“And” between values parts separate entries of the source, which are not always exact repeats. Equal entries are not always repeated. Where two headings read alike, the source gives them in different places.

Columns and labels:
isolated rat enterocytes = details: ref Koster et al. 1986, cited from earlier work
isolated rat hepatocytes = details: ref Koster et al. 1986, cited from earlier work
[1] = racemic-Fen 2 mg kg^-1 intravenous, male Wistar rats; ref Koster et al. 1985; cited from earlier work
[2] = rat; ref Koster et al. 1985, 1986; Hildebrandt et al. 1994; cited from earlier work
[3] = Mean (CV%)
[4] = Urinary excretion after intravenous administration to rats; assay type: in vivo, rat
cardiomyocytes = details: ref Beigi et al. 2006, Jóźwiak et al. 2007, cited from earlier work; for maximum contractile response: cardiomyocyte model, Woo et al. 2009
[5] = not given; remark: listed apart in the source
[6] = Urinary excretion after oral administration to rats; assay type: in vivo, rat
[7] = tested on: β2-AR coupled GS signaling; details: ref Woo et al. 2009; cited from earlier work
[8] = model parameter, iv 5 and oral 25 mg kg^-1
[9] = intravenous 5 mg kg^-1, n=5, mean

## C[C@H](Cc1ccc(O[C@@H]2O[C@H](C(=O)O)[C@@H](O)[C@H](O)[C@H]2O)cc1)NC[C@H](O)c1cc(O)cc(O)c1 [(R,R)-Fen-PG]
Isolated rat enterocytes; enterocytes
  observed fraction of (R,R)-Fen-PG formation: 0.52 ± 0.01
Isolated rat hepatocytes; hepatocytes
  observed fraction of (R,R)-Fen-PG formation: 0.28 ± 0.01

## CC(Cc1ccc(O)cc1)NCC(O)c1cc(O)cc(O)c1 (stereo not drawn) [Fen, 5-[1-hydroxy-2-[[2-(4-hydroxyphenyl)-1-methylethyl]-amino]-ethyl]-1,3-benzenediol]
[1]
  Vss: 1.3 L/kg
  clearance: 72.8 mL/min/kg
  k10: 0.197 min⁻¹
[2]
  bioavailability after oral administration: less than 1%

## CC(Cc1ccc(O)cc1)NCC(O)c1cc(O)cc(O)c1 [(R,R)-Fen, (R,R)-Fenoterol]
[3]; calculated from model parameters, equation (5)
  CL: 170 (8%) ml min^-1kg^-1
[3]; calculated from model parameters, equation (6)
  Vss: 11.6 (15%) l kg^-1
[3]; calculated from model parameters, equations (7) and (8)
  T1/2λz: 96.4 (12%) min
[3]; model parameter
  Vc: 3.94 (20%) l kg^-1
  ka1: 0.004 (39%) min^-1
  ka2: 0.167 (79%) min^-1
[3]; [8]
  k10: 0.043 min^-1 and 0.043 (15%) min^-1
  k12: 0.023 (26%) min^-1
  k21: 0.012 (18%) min^-1
[3]; model parameter, systemic bioavailability
  F: 0.473 (25%)
Isolated rat enterocytes; isolated rat enterocytes
  Clint, conversion to (R,R)-Fen-PG: 0.79 ± 0.20 µL/min/kg
[4]; after intravenous (R,R)-Fen 5 mg kg^-1, 0-6 h, individual animals
  Dose (%) excreted into urine: 2.24% and 7.75%
[4]; after intravenous (R,R)-Fen 5 mg kg^-1, 6-24 h
  Dose (%) excreted into urine: 1.70 ± 1.77%
[4]; after intravenous (R,R)-MFen 5 mg kg^-1, 0-6 h
  Dose (%) excreted into urine: 1.43 ± 0.21%
[4]; after intravenous (R,R)-MFen 5 mg kg^-1, 6-24 h
  Dose (%) excreted into urine: 0.17 ± 0.05%
[4]; after intravenous administration of (R,R)-Fen
  dose excreted in the cumulative 24-h urine collection: about 7%
[4]; after intravenous administration of (R,R)-MFen
  administered dose excreted, 24-h cumulative urinary excretion: about 2%
Oral 25 mg kg^-1
  Cmax: 6.9 ± 0.3 nM
  Tmax: 120 min
Oral 25 mg kg^-1, mean
  AUC0-inf.: 692 ng·min/mL and 691.7 ng·min/mL
  Cmax: 2.1 ng/mL
  T1/2λz: 168.5 min
Oral administration 25 mg kg^-1
  net exposure (AUC): 2.3 nmol·min/mL
cardiomyocytes
  maximum contractile response: significant increase
  EC50 in the cardiomyocyte model: reduced
[5]; intravenous 5 mg kg^-1, n=5
  Tmax: 5.0 min
[5]; [9]
  AUC0-inf.: 36200 ng·min/mL
  C0: 2237 ng/mL
  Cl: 146 mL/min/kg and 145.7 mL/min/kg
  T1/2λz: 108.9 min
  VSS: 8.2 L/kg
[5]; intravenous administration
  area under the curve (AUC): 119 nmol·min/mL
[6]; after oral (R,R)-Fen 25 mg kg^-1, 0-6 h, one animal
  Dose (%) excreted into urine: 0.17%
[6]; after oral (R,R)-Fen 25 mg kg^-1, 6-24 h
  Dose (%) excreted into urine: 0.16 ± 0.12%
[6]; after oral (R,R)-MFen 25 mg kg^-1, 0-6 h, individual animals
  Dose (%) excreted into urine: 0.05% and 0.04%
[6]; after oral (R,R)-MFen 25 mg kg^-1, 6-24 h
  Dose (%) excreted into urine: 0.02 ± 0.01%
[6]; after oral administration of (R,R)-Fen
  dose excreted in the cumulative 24-h urine collection: less than 1%
[6]; after oral administration of (R,R)-MFen
  administered dose excreted, cumulative urine: Trace amounts
[7]
  β2-AR coupled GS signaling: selectively activates
Isolated rat hepatocytes; isolated rat hepatocytes
  Clint, conversion to (R,R)-Fen-PG: 1.48 ± 0.32 µL/min/kg

## COc1ccc(CC(C)NCC(O)c2cc(O)cc(O)c2)cc1 [(R,R)-MFen, (R,R)-methoxyfenoterol]
cardiomyocytes
  maximum contractile response: significant increase

## CC(Cc1ccc(O)cc1)NCC(O)c1cc(O)cc(O)c1 [(S,S)-Fen]
cardiomyocytes
  maximum contractile response: no observed effect
